Laboratory results as given in patent US20230086007A1, “USE OF DENATONIUM BENZOATE AS A SEED TREATMENT FOR CROPS AS BIRD AND/OR INSECT REPELLENT” (KWS SAAT SE & Co. KGaA, priority 2020, published 2023).
Several values for one entry are separate records, joined by “and”; a condition that tells them apart may be missing. Identical values can stand only once.

How the values were obtained:
[1] = LC-MS-MS determination of Bitrex in leaf tissue of oilseed rape seedlings; type: in vivo, Brassica napus
Text: Further experiments on system uptake of Bitrex have been conducted also on oilseed rape (Brassica napus). Seeds of Brassica napus have been treated with concentration of Bitrex from 0.15 g/unit to 75 g/unit. Seeds have been sown and leaf samples have been taken 6 days after emergence and 22 days after emergence. By means of Liquid Chromatography with tandem mass spectrometry (LC-MS-MS) as described above Bitrex amount in leaf tissue has been determined with 4 repetition per Bitrex concentration. Leave samples have been prepared as follows: Leaf material has been harvested, cut in small pieces and put in 3-5 ml ethanol. After 45 min vortexing, centrifuging and taking aliquot of 1 ml for further analysis.

maize plants = experiment: Wireworm field trial in Italy: phytotoxicity (PHYGEN) and vigor (VIGOR); details: for PHYGEN phytotoxicity, stage E: at emergence; for VIGOR, stage E / VIGOR, stage V3 / VIGOR, stage V5: ratings from 1-10 (10 is best)
Text: Evaluation took place at emergence (E), at V3 stage (=3 leaves unfolded) and at V5 stage (=5 leaves unfolded). The following characteristics have been phenotyped: phytotoxicity (PHYGEN) at stage E, V3 and V5 in % per plot, vigor (VIGOR) at stage E, V3 and V5 in ratings from 1-10 (10 is best), insect damage (DAMINS) at stage V5 in plants per row (left DAMINS column in Table 7) and in % per row (right DAMINS column in Table 7).

[2] = LC-MS-MS determination of denatonium benzoate in corn plants grown from treated seed; type: in vivo, Zea mays; details: for Bitrex concentration: first leaf of corn seedling
Description: To determine, if denatonium benzoate could be systemic (taken up by the plant), a Liquid Chromatography with tandem mass spectrometry (LC-MS-MS) was performed, which is a powerful analytical technique that combines the separating power of liquid chromatography with the highly sensitive and selective mass analysis capability of triple quadrupole mass spectrometry. Therefore, we used 1) seedlings just after field emergence to determine the content of denatonium benzoate in the complete plant and in the sprout separately (Table 3), as well as 2) middle-aged plants (V6-V8), where the leaves have been investigated (Table 4).
Beside above experiments the concentration of Bitrex in the first leaf of the seedling have been measured wherein different dosages of Bitrex have been applied to the seed. The higher the application rate, the higher was the Bitrex concentration in the tested leaf tissue.

[3] = tested on: wireworm of genus Agriotes; experiment: Wireworm repellent pot assay on corn in greenhouse; type: in vivo; details: eight days after sowing
Description: Testing took place in pot assays. Per pot four corn seeds were sown (see FIG. 2A). In each pot four wireworm of genus Agriotes were placed in a central cavity of 5 cm depth (see FIG. 2B). […] The seeds in the pots were germinated and seedlings were grown under controlled conditions in greenhouse.
Eight days after sowing the plant biomass (FIG. 3; Table 6) as well as seed damage (FIG. 4A; Table 6) were assessed.

## CC[N+](CC)(CC(=O)Nc1c(C)cccc1C)Cc1ccccc1.O=C([O-])c1ccccc1 [Bitrex, N-Benzyl-2-(2,6-dimethylanilino)-N, N-diethyl-2-oxoethan-1-aminium benzoate]
[1]; oilseed rape leaf, Bitrex 0.15 g/unit, repetitions 1-4
  Bitrex concentation 22 days after emergence: 11.03 ng/g and 10.65 ng/g and 5.58 ng/g and 7.75 ng/g
[1]; oilseed rape leaf, Bitrex 7.5 g/unit, repetitions 1-4
  Bitrex concentation 6 days after emergence: 354.65 ng/g and 194.60 ng/g and 266.85 ng/g and 251.41 ng/g
[1]; oilseed rape, all applications 0.15-75 g/unit
  Bitrex in leaf tissue after 22 days: still detectable but at a low amount
Maize plants; 5 g Bitrex per 50,000 seeds
  PHYGEN phytotoxicity, stage V3: 0 % per plot
  PHYGEN phytotoxicity, stage V5: 0 % per plot
  PHYGEN phytotoxicity, stage E: 0 % per plot
  VIGOR, stage E: 10
  VIGOR, stage V3: 10
  VIGOR, stage V5: 10
Maize plants; 10 g Bitrex per 50,000 seeds
  PHYGEN phytotoxicity, stage V3: 0 % per plot
  PHYGEN phytotoxicity, stage V5: 0 % per plot
  PHYGEN phytotoxicity, stage E: 0 % per plot
  VIGOR, stage E: 10
  VIGOR, stage V3: 10
  VIGOR, stage V5: 10
Maize plants; 20 g Bitrex per 50,000 seeds
  PHYGEN phytotoxicity, stage V3: 0 % per plot
  PHYGEN phytotoxicity, stage V5: 0 % per plot
  PHYGEN phytotoxicity, stage E: 0 % per plot
  VIGOR, stage E: 10
  VIGOR, stage V3: 10
  VIGOR, stage V5: 10
Maize plants; Bitrex applied at high concentration (5-20 g per 50,000 seeds), field trial
  negative effect on plant vitality with respect to phytotoxicity and plant vigor: has not been observed
[2]; corn seedlings just after field emergence, complete plants
  μg DNB/plant or sprout: 5.87 μg DNB/plant or sprout
[2]; corn, early stage
  concentration in sprouts: 200-800 ppb
  concentration in the complete plant: 10-20 ppm
[2]; 0.8 g/unit applied to seed
  Bitrex concentration: 36.8 ng/g
[2]; 1 g/unit applied to seed
  Bitrex concentration: 96.2 ng/g and 88.7 ng/g and 75.2 ng/g and 55.0 ng/g and 70.4 ng/g and 97.1 ng/g
[2]; 2 g/unit applied to seed
  Bitrex concentration: 178.2 ng/g and 155.6 ng/g
[2]; middle-aged corn plants
  concentration in leaves: 5-20 ppb
[2]; middle-aged corn plants (V6-V8), leaves, sample 14 DNB 0.8g, plants P1-P3, listed as DNB
  Final Conc.: 5.49 ppb/ng/g and 5.34 ppb/ng/g and 5.46 ppb/ng/g
[3]
  biomass of plantlets compared with controls: comparable or even more biomass than control plants without wireworm infestations
